For experiment [1], the system named is hepatocellular carcinoma. Kind of experiment: Liver cancer case report, oral Simvastatin treatment. Type of experiment: in vivo, human. On the procedure: (§1) Its use according to this invention in the treatment of malignant disease consists of daily administration of an 80 mg tablet orally.
(§2) In order to avoid unforeseen side effects, the treatment is initiated at about 20 mg dose tablet once daily for one week. The dose then is increased to about 40 mg once daily for an additional week. The following week the dose is increased to about 60 mg and on the fourth week the dose is increased to about 80 mg (two tablets of 40 mg each), and to remain so indefinitely. The intervals for stepping up the dosage can vary.

Experiment [2] deals with metastatic colon cancer. The experiment is described as follows: Colon cancer case reports, oral Simvastatin treatment. Format: in vivo, human. The note with it: Case #1, 20 mg daily raised to 80 mg; over three to four months. On the procedure: as §1, §2
Case #1: business person who underwent hemicolectomy for adenocarcinoma of the colon in 1993 was presented in 1995 to Cedars Sinai Medical Center Liver Team for possible cryotherapy. At that time they had multiple masses in both lobes of the liver as well as outside their liver and multiple nodules in both lungs. Clinically they were bedridden, weak and malnourished. They were rejected as a suitable candidate for needle cryotherapy because of their advanced disease, and was considered unrescuable with a life expectancy of several weeks.
The dose was increased by 20 mg increments every two weeks up to the dose of 80 mg. […] […] gained 27 pounds, became normally active, including extensive travel around the world.
Case #2: person underwent hemicolectomy for cancer of the colon in 1995 because of intestinal obstruction. […]

On to `CCC(C)(C)C(=O)O[C@H]1C[C@@H](C)C=C2C=C[C@H](C)[C@H](CC[C@@H]3C[C@@H](O)CC(=O)O3)[C@H]21` [Simvastatin], for which the “tumor marker alpha fetoprotein” value in experiment [1] (patient, baseline above 55,000, started January 1999, value by April of 1999) is recorded as “less than 8”; in experiment [1] (same patient, value in March 2000) it was 2.4. In addition, the weight gain in experiment [2] is listed as 27 pounds.

These data come from patent US6376537B1, “Cancer treatment” (priority 2000, dated 2002).
